According to ChEMBL document CHEMBL4382242, “Novel racemosin B derivatives as new therapeutic agents for aggressive breast cancer” (Bioorg Med Chem, 2018):
The source made the active and inactive calls. No cut-off for these calls is given here.

What was measured:
MDA-MB-231 [1] = assay: Growth inhibition of human MDA-MB-231 cells after 72 hrs by MTT assay; type: functional, cell-based; conditions: MDA-MB-231, 72 h
MCF7 = assay: Growth inhibition of human MCF7 cells after 72 hrs by MTT assay; type: functional, cell-based; conditions: MCF7, 72 h
MDA-MB-231 [2] = assay: Cell cycle arrest in human MDA-MB-231 cells assessed as accumulation at G2/M phase at 5 uM after 24 hrs by propidium iodide staining based flow cytometry (reference value: 18.5%); type: functional
MDA-MB-231 [3] = assay: Cell cycle arrest in human MDA-MB-231 cells assessed as accumulation at G1 phase at 5 uM after 48 hrs by propidium iodide staining based flow cytometry (reference value: 3.19%); type: functional
MDA-MB-231 [4] = assay: Induction of morphological changes in human MDA-MB-231 cells assessed as large vacuole formation at 5 uM after 24 hrs; type: functional, cell-based
4T1 = assay: Growth inhibition of mouse 4T1 cells after 72 hrs by MTT assay; type: functional, cell-based; conditions: 4T1, 72 h
MDA-MB-231 [5] = assay: Induction of apoptosis in human MDA-MB-231 cells assessed as live cells at 5 uM after 24 hrs by Annexin V-FITC/propidium iodide staining based flow cytometry (reference value: 90.8%); type: functional
MDA-MB-231 [6] = assay: Induction of apoptosis in human MDA-MB-231 cells assessed as increase in Cyclin-B1 protein expression at 5 uM after 16 hrs by Western blot analysis; type: functional, cell-based
MDA-MB-231 [7] = assay: Induction of apoptosis in human MDA-MB-231 cells assessed as live cells at 5 uM after 48 hrs by Annexin V-FITC/propidium iodide staining based flow cytometry (reference value: 87.6%); type: functional
MDA-MB-231 [8] = assay: Growth inhibition of human MDA-MB-231 cells at 1 to 5 uM after 72 hrs by MTT assay; type: functional, cell-based
MDA-MB-231 [9] = assay: Cell cycle arrest in human MDA-MB-231 cells assessed as accumulation at G2/M phase at 5 uM after 48 hrs by propidium iodide staining based flow cytometry (reference value: 17.79%); type: functional
MDA-MB-231 [10] = assay: Inhibition of autophagy in human MDA-MB-231 cells assessed as LC3-2 accumulation at 5 uM after 16 hrs by DAPI staining based immunofluorescence assay; type: functional, cell-based
MDA-MB-231 [11] = assay: Cell cycle arrest in human MDA-MB-231 cells assessed as accumulation at S phase at 5 uM after 48 hrs by propidium iodide staining based flow cytometry (reference value: 31.71%); type: functional
MDA-MB-231 [12] = assay: Induction of apoptosis in human MDA-MB-231 cells assessed as early apoptotic cells at 5 uM after 48 hrs by Annexin V-FITC/propidium iodide staining based flow cytometry (reference value: 5.3%); type: functional
[13] = Growth inhibition of human WM35 cells after 72 hrs by MTT assay; type: functional; conditions: WM35, 72 h
MDA-MB-231 [14] = assay: Induction of apoptosis in human MDA-MB-231 cells assessed as necrotic cells at 5 uM after 24 hrs by Annexin V-FITC/propidium iodide staining based flow cytometry (reference value: 0.7%); type: functional
MDA-MB-231 [15] = assay: Induction of apoptosis in human MDA-MB-231 cells assessed as necrotic cells at 5 uM after 48 hrs by Annexin V-FITC/propidium iodide staining based flow cytometry (reference value: 0.7%); type: functional
MDA-MB-231 [16] = assay: Inhibition of autophagy in human MDA-MB-231 cells assessed as increase in p62 protein expression at 5 uM after 16 hrs by Western blot analysis; type: functional, cell-based
MDA-MB-231 [17] = assay: Cell cycle arrest in human MDA-MB-231 cells assessed as accumulation at G1 phase at 5 uM after 24 hrs by propidium iodide staining based flow cytometry (reference value: 47.9%); type: functional
MDA-MB-231 [18] = assay: Induction of apoptosis in human MDA-MB-231 cells assessed as increase in Bax protein expression at 5 uM after 16 hrs by Western blot analysis; type: functional, cell-based
[19] = target: Serine/threonine-protein kinase mTOR (Homo sapiens) (UniProt P42345); assay: Inhibition of mTOR phosphorylation in human MDA-MB-231 cells at 5 uM after 16 hrs by Western blot analysis; type: cell-based
MDA-MB-231 [20] = assay: Induction of apoptosis in human MDA-MB-231 cells assessed as late apoptotic cells at 5 uM after 48 hrs by Annexin V-FITC/propidium iodide staining based flow cytometry (reference value: 6.5%); type: functional
MDA-MB-231 [21] = assay: Induction of apoptosis in human MDA-MB-231 cells assessed as early apoptotic cells at 5 uM after 24 hrs by Annexin V-FITC/propidium iodide staining based flow cytometry (reference value: 3.7%); type: functional
MDA-MB-231 [22] = assay: Cell cycle arrest in human MDA-MB-231 cells assessed as accumulation at S phase at 5 uM after 24 hrs by propidium iodide staining based flow cytometry (reference value: 29.76%); type: functional
MDA-MB-231 [23] = assay: Induction of apoptosis in human MDA-MB-231 cells assessed as decrease in Bcl2 protein expression at 5 uM after 16 hrs by Western blot analysis; type: functional, cell-based
MDA-MB-231 [24] = assay: Induction of apoptosis in human MDA-MB-231 cells assessed as late apoptotic cells at 5 uM after 24 hrs by Annexin V-FITC/propidium iodide staining based flow cytometry (reference value: 4.8%); type: functional
K562 = assay: Growth inhibition of human K562 cells after 72 hrs by MTT assay; type: functional, cell-based; conditions: K562, 72 h
[25] = Growth inhibition of human WM9 cells after 72 hrs by MTT assay; type: functional; conditions: WM9, 72 h
HEL = assay: Growth inhibition of HEL cells after 72 hrs by MTT assay; type: functional, cell-based; conditions: Homo sapiens

`O=C(NCCN1CCCC1)c1cc2c3ccccc3[nH]c2c2c1[nH]c1cc(Cl)ccc12` gave an IC50 (MDA-MB-231 [1]) of 5.7 µM and an IC50 (MCF7) of 8.4 µM.
Work on `COC(=O)c1cc2c3ccccc3[nH]c2c2c1[nH]c1ccc(Br)cc12` yielded an IC50 (MDA-MB-231 [1]) of over 40 µM and an IC50 (MCF7) of over 40 µM.
Work on `COC(=O)c1cc2c3ccccc3[nH]c2c2c1[nH]c1ccc(OC)cc12` yielded an IC50 (MDA-MB-231 [1]) of over 40 µM and an IC50 (MCF7) of over 40 µM.
With `CN(C)CCNC(=O)c1cc2c3ccccc3[nH]c2c2c1[nH]c1ccccc12` the IC50 (MDA-MB-231 [1]) was 1.43 µM and the IC50 (MCF7) was 3.39 µM.
For `O=C(NCCN1CCCC1)c1cc2c3ccccc3[nH]c2c2c1[nH]c1ccc(Br)cc12`, the IC50 (MDA-MB-231 [1]) was 1.82 µM and the IC50 (MCF7) was 1.3 µM.
With `CN(C)CCNC(=O)c1cc2c3ccccc3[nH]c2c2c1[nH]c1ccc(Br)cc12` the Activity (MDA-MB-231 [2]) was 22.91%, the Activity (MDA-MB-231 [3]) was 48.65% and the Activity (MDA-MB-231 [4]) was “Active”. The IC50 (4T1) was 2.77 µM, the Activity (MDA-MB-231 [5]) was 82.2% and the IC50 (MDA-MB-231 [1]) was 1.06 µM. For the same compound, the Activity (MDA-MB-231 [6]) was “inactive”, the Activity (MDA-MB-231 [7]) was 70.8% and the “growth inhibition (GI)” value (MDA-MB-231 [8]) was “Active”. The Activity (MDA-MB-231 [9]) was 29.98%, the inhibition (MDA-MB-231 [10]) was “Active” and the Activity (MDA-MB-231 [11]) was 21.38%. The Activity (MDA-MB-231 [12]) was 14.2%, the IC50 [13] was 3.81 µM and the Activity (MDA-MB-231 [14]) was 2%. For the same compound, the Activity (MDA-MB-231 [15]) was 9.6%, the inhibition (MDA-MB-231 [16]) was “Active” and the Activity (MDA-MB-231 [17]) was 47.46%. The Activity (MDA-MB-231 [18]) was “inactive”, the inhibition [19] was “Active” and the Activity (MDA-MB-231 [20]) was 5.5%. The Activity (MDA-MB-231 [21]) was 10.8%, the Activity (MDA-MB-231 [22]) was 29.31% and the Activity (MDA-MB-231 [23]) was “inactive”. It also gave an Activity (MDA-MB-231 [24]) of 5%, an IC50 (K562) of 1.56 µM and an IC50 (MCF7) of 2 µM. The IC50 [25] was 2.43 µM and the IC50 (HEL) was 3.63 µM.
For `O=C(NCc1ccncc1)c1cc2c3ccccc3[nH]c2c2c1[nH]c1ccccc12`, the IC50 (MDA-MB-231 [1]) was 5.64 µM and the IC50 (MCF7) was 8.08 µM.
`COC(=O)c1cc2c3ccccc3[nH]c2c2c1[nH]c1ccccc12` gave an IC50 (MDA-MB-231 [1]) of over 40 µM and an IC50 (MCF7) of over 40 µM.
Work on `CC(C)N(CCNC(=O)c1cc2c3ccccc3[nH]c2c2c1[nH]c1ccccc12)C(C)C` yielded an IC50 (MDA-MB-231 [1]) of 1.72 µM and an IC50 (MCF7) of 3.12 µM.
For `CCN1CCCC1CNC(=O)c1cc2c3ccccc3[nH]c2c2c1[nH]c1ccccc12` (configuration not stated), the IC50 (MDA-MB-231 [1]) was 3.53 µM and the IC50 (MCF7) was 5.83 µM.
`O=C(NCCc1c[nH]cn1)c1cc2c3ccccc3[nH]c2c2c1[nH]c1ccccc12` showed an IC50 (MDA-MB-231 [1]) of 4.16 µM and an IC50 (MCF7) of 4.86 µM.
In the case of `CN(C)c1ccc(NC(=O)c2cc3c4ccccc4[nH]c3c3c2[nH]c2ccccc23)cc1`, the IC50 (MDA-MB-231 [1]) is reported as 7.79 µM and the IC50 (MCF7) is reported as 16.4 µM.
For `CN1CCC(NC(=O)c2cc3c4ccccc4[nH]c3c3c2[nH]c2ccccc23)CC1`, the IC50 (MDA-MB-231 [1]) was 1.62 µM and the IC50 (MCF7) was 3.89 µM.
Work on `COc1ccc2[nH]c3c(C(=O)NCCN(C)C)cc4c5ccccc5[nH]c4c3c2c1` yielded an IC50 (MDA-MB-231 [1]) of 2.74 µM and an IC50 (MCF7) of 5.17 µM.
In the case of `CCN(CC)CCNC(=O)c1cc2c3ccccc3[nH]c2c2c1[nH]c1ccccc12`, the IC50 (MDA-MB-231 [1]) is reported as 1.71 µM and the IC50 (MCF7) is reported as 2.39 µM.
